Data from patent publication US7838485B2, “Biodegradable alkaline disinfectant cleaner with analyzable surfactant” (American Sterilizer Company, priority 2007, dated 2010).

Tested on: S. aureus ATCC 6538
Assay: Quantitative modified AOAC Use Dilution Test, log reduction on stainless steel penicylinders
Assay type: cell-based
Details: 5% Fetal bovine serum soil load, contact time 10 min., 10% of the product
Description: Tests were done using the aforementioned modified version of the AOAC Use Dilution Test, to quantify the number of viable bacteria remaining on the stainless steel penicylinders. […] Starting populations are listed in parentheses.

For `[Na+].[OH-]` [13% NaOH, sodium hydroxide], the “Average Log Reduction” value (40° C.) was 2.69, the “Average Log Reduction” value (60° C.) was 7.00 and the “Average Log Reduction” value (RT) was 1.76.
